The source of these data is patent publication US11596639B2, “Substituted indole Mcl-1 inhibitors” (Vanderbilt University, priority 2016, dated 2023).

The target in one assay is Mcl-1 (Homo sapiens (Human), UniProt Q07820). The assay can be described thus: Fluorescence polarization anisotropy (FPA) competition assay, FITC-Bak or FITC-Bim BH3 peptide. Type of assay: binding. Particulars: read-out: Ki for Inhibition of Mcl-1 by FPA assay.
Assay [1] has as its system H929 human cancer cell lines. As to the kind of experiment: Cellular viability / proliferation (Cell TiterGlo, 72 h). Type of assay: cell-based. Put shortly: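 H929 cells plated at 1,000/well in 10% FBS medium received a 2-fold serial compound dilution (top 50 μM, DMSO <1%) 24 h later. After 72 h, viability was read by CellTiter-Glo luminescence. IC50 came from a four-parameter fit.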

The mark [2] stands for this setting: Homo sapiens, NCI-H929, 72 h, read-out: GI50 on cellular proliferation of H929 human cancer cell lines, H929 cells, 72 h, Cell TiterGlo, 10% FBS.

The structures appear in SMILES notation. Like-named read-outs stand apart in the source and are kept apart here. Where only a bound is given, the exact number is not on record here.

Sequence of Mcl-1 (Q07820 172-327): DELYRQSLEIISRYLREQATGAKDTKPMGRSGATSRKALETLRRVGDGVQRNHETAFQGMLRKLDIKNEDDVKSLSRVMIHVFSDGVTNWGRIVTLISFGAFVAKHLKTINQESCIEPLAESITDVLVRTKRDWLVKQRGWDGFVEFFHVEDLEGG

With `Cc1cc(OCCCc2c3n(c4c(-c5c(C)nn(C)c5C)c(Cl)ccc24)CCCN(c2cc(C(=O)O)cc4c2N(C)CCO4)C3=O)cc(C)c1Cl` [Example 61, 5-[8-chloro-11-[3-(4-chloro-3,5-dimethyl-phenoxy)propyl]-1-oxo-7-(1,3,5-trimethylpyrazol-4-yl)-4,5-dihydro-3H-[1,4]diazepino[1,2-a]indol-2-yl]-4-methyl-2,3-dihydro-1,4-benzoxazine-7-carboxylic acid], on Mcl-1, the Ki was found to be 0.0057 µM. Moreover, in assay [1] (setting [2]), the GI50 was determined as 8.2 µM.
On the same counts, the results for `COc1cc(C(=O)O)cc(N2CCCn3c(c(CCCOc4cc(C)c(Cl)c(C)c4)c4ccc(Cl)c(-c5c(C)nn(C)c5C)c43)C2=O)c1OCCO` [Example 62, 3-[8-chloro-11-[3-(4-chloro-3,5-dimethyl-phenoxy)propyl]-1-oxo-7-(1,3,5-trimethylpyrazol-4-yl)-4,5-dihydro-3H-[1,4]diazepino[1,2-a]indol-2-yl]-4-(2-hydroxyethoxy)-5-methoxy-benzoic acid] are less than 0.001 µM and 11 µM.
For `Cc1cc(OCCCc2c3n(c4c(-c5c(C)nn(C)c5C)c(Cl)ccc24)[C@H](C)CN(c2cccc4c(C(=O)O)cccc24)C3=O)cc(C)c1Cl` [Example 63, (R)-5-(7-Chloro-10-(3-(4-chloro-3,5-dimethylphenoxy)propyl)-4-methyl-1-oxo-6-(1,3,5-trimethyl-1H-pyrazol-4-yl)-3,4-dihydropyrazino[1,2-a]indol-2(1H)-yl)-1-naphthoic acid] the same measures were less than 0.001 µM and 0.27 µM.
For `Cc1cc(OCCCc2c3n(c4c(-c5c(C)nn(C)c5C)c(Cl)ccc24)CCCN(c2ccc4cnoc4c2)C3=O)cc(C)c1Cl` [Example 64, 2-(1,2-benzoxazol-6-yl)-8-chloro-11-[3-(4-chloro-3,5-dimethyl-phenoxy)propyl]-7-(1,3,5-trimethylpyrazol-4-yl)-4,5-dihydro-3H-[1,4]diazepino[1,2-a]indol-1-one], at Mcl-1, the inhibition constant (Ki) amounted to 0.0048 µM. The GI50 in assay [1] (setting [2]) was determined as 5.6 µM.
For `COc1cc(C(=O)O)cc(N2CCCn3c(c(CCCOc4cc(C)c(Cl)c(C)c4)c4ccc(Cl)c(-c5c(C)nn(C)c5C)c43)C2=O)c1OCCOc1ccccc1F` [Example 65, 3-[8-Chloro-11-[3-(4-chloro-3,5-dimethyl-phenoxy)propyl]-1-oxo-7-(1,3,5-trimethylpyrazol-4-yl)-4,5-dihydro-3H-[1,4]diazepino[1,2-a]indol-2-yl]-4-[2-(2-fluorophenoxy)ethoxy]-5-methoxy-benzoic acid] the same measures were 0.0031 µM and 5.5 µM.
As to `COc1cc(C(=O)O)cc(N2CCCn3c(c(CCCOc4cc(C)c(Cl)c(C)c4)c4ccc(Cl)c(-c5c(C)nn(C)c5C)c43)C2=O)c1OCCc1ccccc1` [Example 66, 3-[8-Chloro-11-[3-(4-chloro-3,5-dimethyl-phenoxy)propyl]-1-oxo-7-(1,3,5-trimethylpyrazol-4-yl)-4,5-dihydro-3H-[1,4]diazepino[1,2-a]indol-2-yl]-5-methoxy-4-(2-phenylethoxy)benzoic acid], the Ki on Mcl-1 is 0.0043 µM. Also, the GI50 in assay [1] (setting [2]) was 6.4 µM.
For `COc1cc(C(=O)O)cc(N2CCCn3c(c(CCCOc4cc(C)c(Cl)c(C)c4)c4ccc(Cl)c(-c5c(C)nn(C)c5C)c43)C2=O)c1OCCCO` [Example 67, 3-[8-Chloro-11-[3-(4-chloro-3,5-dimethyl-phenoxy)propyl]-1-oxo-7-(1,3,5-trimethylpyrazol-4-yl)-4,5-dihydro-3H-[1,4]diazepino[1,2-a]indol-2-yl]-4-(3-hydroxypropoxy)-5-methoxy-benzoic acid] the same measures were less than 0.001 µM and 8.5 µM.
Turning to `Cc1cc(OCCCc2c3n(c4c(-c5c(C)nn(C)c5C)c(Cl)ccc24)[C@H](C)CN(c2cccc4c(C(=O)O)cn(C)c24)C3=O)cc(C)c1Cl` [Example 69, (R)-7-(7-Chloro-10-(3-(4-chloro-3,5-dimethylphenoxy)propyl)-4-methyl-1-oxo-6-(1,3,5-trimethyl-1H-pyrazol-4-yl)-3,4-dihydropyrazino[1,2-a]indol-2(1H)-yl)-1-methyl-1H-indole-3-carboxylic acid], the inhibition constant Ki at Mcl-1 was less than 0.001 µM. For the same compound, in assay [1] (read-out: GI50 on cellular proliferation of H929 human cancer cell lines, H929 cells, 72 h, Cell TiterGlo, 10% FBS), the GI50 was less than 0.2 µM.
For `Cc1cc(OCCCc2c3n(c4c(-c5c(C)n[nH]c5C)c(Cl)ccc24)[C@H](C)CN(c2cc(C(=O)O)c4ccn(C)c4c2)C3=O)cc(C)c1Cl` [Example 70, (R)-6-(7-chloro-10-(3-(4-chloro-3,5-dimethylphenoxy)propyl)-6-(3,5-dimethyl-1H-pyrazol-4-yl)-4-methyl-1-oxo-3,4-dihydropyrazino[1,2-a]indol-2(1H)-yl)-1-methyl-1H-indole-4-carboxylic acid], on Mcl-1, the Ki was less than 0.001 µM. Also, the GI50 in assay [1] (setting [2]) turned out to be 2.4 µM.
For `Cc1cc(OCCCc2c3n(c4c(-c5c(C)n[nH]c5C)c(Cl)ccc24)[C@H](C)CN(c2cc(C(=O)O)cc4c2ccn4C)C3=O)cc(C)c1Cl` [Example 71, (R)-4-(7-chloro-10-(3-(4-chloro-3,5-dimethylphenoxy)propyl)-6-(3,5-dimethyl-1H-pyrazol-4-yl)-4-methyl-1-oxo-3,4-dihydropyrazino[1,2-a]indol-2(1H)-yl)-1-methyl-1H-indole-6-carboxylic acid] the same measures were less than 0.001 µM and 3.3 µM.
With `Cc1cc(OCCCc2c3n(c4c(-c5c(C)n[nH]c5C)c(Cl)ccc24)CCCN(c2cc(C(=O)O)cc4c2ccn4C)C3=O)cc(C)c1Cl` [Example 72, 4-(8-chloro-11-(3-(4-chloro-3,5-dimethylphenoxy)propyl)-7-(3,5-dimethyl-1H-pyrazol-4-yl)-1-oxo-4,5-dihydro-1H-[1,4]diazepino[1,2-a]indol-2(3H)-yl)-1-methyl-1H-indole-6-carboxylic acid], the Ki at Mcl-1 was less than 0.001 µM. For the same compound, the GI50 in assay [1] (setting [2]) turned out to be 4.7 µM.
For `Cc1cc(OCCCc2c3n(c4c(-c5c(C)nn(C)c5C)c(Cl)ccc24)[C@H](C)CN(c2cn(C)c4c(C(=O)O)cccc24)C3=O)cc(C)c1Cl` [Example 75, (R)-3-(7-Chloro-10-(3-(4-chloro-3,5-dimethylphenoxy)propyl)-4-methyl-1-oxo-6-(1,3,5-trimethyl-1H-pyrazol-4-yl)-3,4-dihydropyrazino[1,2-a]indol-2(1H)-yl)-1-methyl-1H-indole-7-carboxylic acid] the same measures were less than 0.001 µM and 1.1 µM.
Turning to `Cc1cc(OCCCc2c3n(c4c(-c5c(C)nn(C)c5C)c(Cl)ccc24)[C@H](C)CN(c2ccc4c(C(=O)O)cn(C)c4c2)C3=O)cc(C)c1Cl` [Example 79, (R)-6-(7-Chloro-10-(3-(4-chloro-3,5-dimethylphenoxy)propyl)-4-methyl-1-oxo-6-(1,3,5-trimethyl-1H-pyrazol-4-yl)-3,4-dihydropyrazino[1,2-a]indol-2(1H)-yl)-1-methyl-1H-indole-3-carboxylic acid], the Ki on Mcl-1 is less than 0.001 µM. Also, in assay [1] (setting [2]), the GI50 came out at 1.5 µM.
On the same counts, the results for `Cc1cc(OCCCc2c3n(c4c(-c5c(C)nn(C)c5C)c(Cl)ccc24)CCCN(c2ccc4c(C(=O)O)cn(C)c4c2)C3=O)cc(C)c1Cl` [Example 81, 6-(8-Chloro-11-(3-(4-chloro-3,5-dimethylphenoxy)propyl)-1-oxo-7-(1,3,5-trimethyl-1H-pyrazol-4-yl)-4,5-dihydro-1H-[1,4]diazepino[1,2-a]indol-2(3H)-yl)-1-methyl-1H-indole-3-carboxylic acid] are 0.0024 µM and 2.9 µM.
On the same counts, the results for `COCCn1ncc2c(C(=O)O)cc(N3CCCn4c(c(CCCOc5cc(C)c(Cl)c(C)c5)c5ccc(Cl)c(-c6c(C)nn(C)c6C)c54)C3=O)cc21` [Example 82, 6-[8-Chloro-11-[3-(4-chloro-3,5-dimethyl-phenoxy)propyl]-1-oxo-7-(1,3,5-trimethylpyrazol-4-yl)-4,5-dihydro-3H-[1,4]diazepino[1,2-a]indol-2-yl]-1-(2-methoxyethyl)indazole-4-carboxylic acid] are less than 0.001 µM and 4.8 µM.
For `CCn1cc(N2C[C@@H](C)n3c(c(CCCOc4cc(C)c(Cl)c(C)c4)c4ccc(Cl)c(-c5c(C)nn(C)c5C)c43)C2=O)c2cccc(C(=O)O)c21` [Example 83, (R)-3-(7-Chloro-10-(3-(4-chloro-3,5-dimethylphenoxy)propyl)-4-methyl-1-oxo-6-(1,3,5-trimethyl-1H-pyrazol-4-yl)-3,4-dihydropyrazino[1,2-a]indol-2(1H)-yl)-1-ethyl-1H-indole-7-carboxylic acid] the same measures were less than 0.001 µM and 1.1 µM.
Consider `Cc1cc(OCCCc2c3n(c4c(-c5c(C)nn(C)c5C)c(Cl)ccc24)[C@H](C)CN(c2cc(C(=O)O)cc4c2cnn4C)C3=O)cc(C)c1Cl` [Example 84, (R)-4-(7-chloro-10-(3-(4-chloro-3,5-dimethylphenoxy)propyl)-4-methyl-1-oxo-6-(1,3,5-trimethyl-1H-pyrazol-4-yl)-3,4-dihydropyrazino[1,2-a]indol-2(1H)-yl)-1-methyl-1H-indazole-6-carboxylic acid], for which the Ki on Mcl-1 was less than 0.001 µM. The GI50 in assay [1] (setting [2]) was 1.2 µM.
On the same counts, the results for `Cc1cc(OCCCc2c3n(c4c(-c5c(C)nn(C)c5C)c(Cl)ccc24)[C@H](C)CN(c2cn(C)c4cc(C(=O)O)ccc24)C3=O)cc(C)c1Cl` [Example 88, (R)-3-(7-Chloro-10-(3-(4-chloro-3,5-dimethylphenoxy)propyl)-4-methyl-1-oxo-6-(1,3,5-trimethyl-1H-pyrazol-4-yl)-3,4-dihydropyrazino[1,2-a]indol-2(1H)-yl)-1-methyl-1H-indole-6-carboxylic acid] are less than 0.001 µM and 0.29 µM.
